Patent US9951025B2, “Halogenopyrazoles as inhibitors of thrombin” (VERSEON CORPORATION, priority 2013, dated 2018)

Molecular target: T1, Human thrombin (Homo sapiens, UniProt P00734)
T1 construct: purchased Haematologic Technologies Inc
Assay: thrombin protease inhibition assay, chromogenic substrate S-2238
Type: biochemical
Conditions: 3 nM human thrombin, 125 μM S-2238, 10 min pre-incubation, RT
Method: Compounds described herein can be assayed, by a variety of methods known in the art and described herein, for inhibition of biological activity, e.g., protease activity, of a variety of proteins, e.g., thrombin.
The thrombin activity reported herein (e.g., Table A) was obtained as follows. […] Thrombin was assayed in buffer containing 0.05 M Tris (pH 7.4), 0.015 M NaCl and 0.01% PEG-8000. The final concentration of enzyme used was 3 nM thrombin. […] All assays were performed in 96-well microtiter plates at room temperature (RT). […] Inhibitor IC50 values were determined by adding test compound as ten point, three-fold serial dilutions in buffer solution, as known in the art. The plate was read at 10 minutes after substrate addition. The IC50 was calculated by plotting the percent (%) inhibition against compound concentration and fitting the data to a constrained four parameter sigmoidal curve, as known in the art.
Work on `CC(C)(C)C(=O)n1nc(-c2ccc3c(c2)CCCC3=O)c(F)c1NCc1ccc(Cl)s1` [Compound 29, 6-(5-[(5-chlorothiophen-2-yl)methyl]amino-1-(2,2-dimethylpropanoyl)-4-fluoro-1H-pyrazol-3-yl)-1,2,3,4-tetrahydronaphthalen-1-one] yielded an IC50 of under 100 nM.
With `COc1ccccc1C(=O)n1nc(-c2ccc3c(c2)CCCC3O)c(F)c1NCc1ccc(Cl)s1` (stereo not drawn) [Compound 30, 6-(5-[(5-chlorothiophen-2-yl)methyl]amino-4-fluoro-1-(2-methoxybenzoyl)-1H-pyrazol-3-yl)-1,2,3,4-tetrahydronaphthalen-1-ol] the IC50 was over 1000 nM.
`COc1ccccc1C(=O)n1nc(-c2ccc3c(c2)CCCC3=O)c(F)c1NCc1ccc(Cl)s1` [Compound 31, 6-(5-[(5-chlorothiophen-2-yl)methyl]amino-4-fluoro-1-(2-methoxybenzoyl)-1H-pyrazol-3-yl)-1,2,3,4-tetrahydronaphthalen-1-one] showed an IC50 of under 100 nM.
Work on `O=C(c1cccc2c1OCCO2)n1nc(C2CCOCC2)c(F)c1NCc1ccc(Cl)s1` [Compound 32, N-[(5-chlorothiophen-2-yl)methyl]-1-(2,3-dihydro-1,4-benzodioxine-5-carbonyl)-4-fluoro-3-(oxan-4-yl)-1H-pyrazol-5-amine] yielded an IC50 of under 100 nM.
In the case of `O=C(c1cccc2c1OCCO2)n1nc(C2CCNCC2)c(F)c1NCc1ccc(Cl)s1` [Compound 33, N-[(5-chlorothiophen-2-yl)methyl]-1-(2,3-dihydro-1,4-benzodioxine-5-carbonyl)-4-fluoro-3-(piperidin-4-yl)-1H-pyrazol-5-amine], the IC50 is reported as under 100 nM.
`O=C(c1cccc2c1OCCO2)n1nc(-c2ccccc2)c(F)c1NCc1ccc(Cl)s1` [Compound 34, N-[(5-chlorothiophen-2-yl)methyl]-1-(2,3-dihydro-1,4-benzodioxine-5-carbonyl)-4-fluoro-3-phenyl-1H-pyrazol-5-amine] gave an IC50 of under 100 nM.
Work on `O=C(c1cccc2c1OCCO2)n1nc(NCc2ccc(Cl)s2)c(F)c1C1CCOCC1` [Compound 35, N-[(5-chlorothiophen-2-yl)methyl]-1-(2,3-dihydro-1,4-benzodioxine-5-carbonyl)-4-fluoro-5-(oxan-4-yl)-1H-pyrazol-3-amine] yielded an IC50 of over 1000 nM.
Work on `COc1ccc(C(=O)n2nc(C3CCOCC3)c(F)c2NCc2ccc(Cl)s2)c(OC)c1` [Compound 36, N-[(5-chlorothiophen-2-yl)methyl]-1-(2,4-dimethoxybenzoyl)-4-fluoro-3-(oxan-4-yl)-1H-pyrazol-5-amine] yielded an IC50 of under 100 nM.
For `COc1ccc(C(=O)n2nc(C3CCNCC3)c(F)c2NCc2ccc(Cl)s2)c(OC)c1` [Compound 37, N-[(5-chlorothiophen-2-yl)methyl]-1-(2,4-dimethoxybenzoyl)-4-fluoro-3-(piperidin-4-yl)-1H-pyrazol-5-amine], the IC50 was under 100 nM.
In the case of `COc1ccc(C(=O)n2nc(-c3ccccc3)c(F)c2NCc2ccc(Cl)s2)c(OC)c1` [Compound 38, N-[(5-chlorothiophen-2-yl)methyl]-1-(2,4-dimethoxybenzoyl)-4-fluoro-3-phenyl-1H-pyrazol-5-amine], the IC50 is reported as under 100 nM.
Work on `COc1ccc(C(=O)n2nc(NCc3ccc(Cl)s3)c(F)c2C2CCOCC2)c(OC)c1` [Compound 39, N-[(5-chlorothiophen-2-yl)methyl]-1-(2,4-dimethoxybenzoyl)-4-fluoro-5-(oxan-4-yl)-1H-pyrazol-3-amine] yielded an IC50 of over 1000 nM.
With `COc1ccccc1C(=O)n1nc(C2CCN(S(=O)(=O)c3cccc4c(N(C)C)cccc34)CC2)c(F)c1NCc1ccc(Cl)s1` [Compound 40, N-[(5-chlorothiophen-2-yl)methyl]-3-(1-[5-(dimethylamino)naphthalen-1-yl]sulfonylpiperidin-4-yl)-4-fluoro-1-(2-methoxybenzoyl)-1H-pyrazol-5-amine] the IC50 was over 1000 nM.
With `COc1ccccc1C(=O)n1nc(-c2ccccn2)c(F)c1NCc1ccc(Cl)s1` [Compound 43, N-[(5-chlorothiophen-2-yl)methyl]-4-fluoro-1-(2-methoxybenzoyl)-3-(pyridin-2-yl)-1H-pyrazol-5-amine] the IC50 was under 100 nM.
Compound `COc1ccccc1C(=O)n1nc(-c2ccccc2)c(F)c1NCc1ccc(Cl)s1` [Compound 44, N-[(5-chlorothiophen-2-yl)methyl]-4-fluoro-1-(2-methoxybenzoyl)-3-phenyl-1H-pyrazol-5-amine] has an IC50 of under 100 nM.
For `COc1ccccc1C(=O)n1nc(NCc2ccc(Cl)s2)c(F)c1C1CCOCC1` [Compound 45, N-[(5-chlorothiophen-2-yl)methyl]-4-fluoro-1-(2-methoxybenzoyl)-5-(oxan-4-yl)-1H-pyrazol-3-amine], the IC50 was over 1000 nM.
`CC1(C(=O)n2nc(-c3ccccc3)c(F)c2NCc2ccc(Cl)s2)COC1` [Compound 46, N-[(5-chlorothiophen-2-yl)methyl]-4-fluoro-1-(3-methyloxetane-3-carbonyl)-3-phenyl-1H-pyrazol-5-amine] gave an IC50 of over 1000 nM.
In the case of `CC1(C(=O)n2nc(-c3ccccc3)c(F)c2NCc2ccc(Cl)s2)CCOCC1` [Compound 48, N-[(5-chlorothiophen-2-yl)methyl]-4-fluoro-1-(4-methyloxane-4-carbonyl)-3-phenyl-1H-pyrazol-5-amine], the IC50 is reported as under 100 nM.
`O=C(c1ccoc1)n1nc(C2CCOCC2)c(F)c1NCc1ccc(Cl)s1` [Compound 49, N-[(5-chlorothiophen-2-yl)methyl]-4-fluoro-1-(furan-3-carbonyl)-3-(oxan-4-yl)-1H-pyrazol-5-amine] showed an IC50 of under 100 nM.
In the case of `O=C(c1ccoc1)n1nc(C2CCNCC2)c(F)c1NCc1ccc(Cl)s1` [Compound 50, N-[(5-chlorothiophen-2-yl)methyl]-4-fluoro-1-(furan-3-carbonyl)-3-(piperidin-4-yl)-1H-pyrazol-5-amine], the IC50 is reported as under 100 nM.
With `O=C(c1ccoc1)n1nc(-c2ccccc2)c(F)c1NCc1ccc(Cl)s1` [Compound 51, N-[(5-chlorothiophen-2-yl)methyl]-4-fluoro-1-(furan-3-carbonyl)-3-phenyl-1H-pyrazol-5-amine] the IC50 was under 100 nM.
In the case of `COCCOc1ccc(C(=O)n2nc(C3CCOCC3)c(F)c2NCc2ccc(Cl)s2)cc1` [Compound 52, N-[(5-chlorothiophen-2-yl)methyl]-4-fluoro-1-[4-(2-methoxyethoxy)benzoyl]-3-(oxan-4-yl)-1H-pyrazol-5-amine], the IC50 is reported as under 100 nM.
Work on `O=C(c1ccc(N2CCOCC2)cc1)n1nc(C2CCOCC2)c(F)c1NCc1ccc(Cl)s1` [Compound 53, N-[(5-chlorothiophen-2-yl)methyl]-4-fluoro-1-[4-(morpholin-4-yl)benzoyl]-3-(oxan-4-yl)-1H-pyrazol-5-amine] yielded an IC50 of under 100 nM.
Compound `O=C(c1ccsc1)n1nc(C2CCOCC2)c(F)c1NCc1ccc(Cl)s1` [Compound 54, N-[(5-chlorothiophen-2-yl)methyl]-4-fluoro-3-(oxan-4-yl)-1-(thiophene-3-carbonyl)-1H-pyrazol-5-amine] has an IC50 of under 100 nM.
Work on `COc1ccccc1C(=O)n1nc(NCc2ccc(Cl)s2)c(F)c1C1CCN(S(=O)(=O)c2cccc3c(N(C)C)cccc23)CC1` [Compound 55, N-[(5-chlorothiophen-2-yl)methyl]-5-(1-[5-(dimethylamino)naphthalen-1-yl]sulfonylpiperidin-4-yl)-4-fluoro-1-(2-methoxybenzoyl)-1H-pyrazol-3-amine] yielded an IC50 of over 1000 nM.
In the case of `COc1ccccc1C(=O)N(Cc1ccc(Cl)s1)c1[nH]nc(-c2ccc3c(c2)CCCC3=O)c1F` [Compound 56, N-[(5-chlorothiophen-2-yl)methyl]-N-[4-fluoro-3-(5-oxo-5,6,7,8-tetrahydronaphthalen-2-yl)-1H-pyrazol-5-yl]-2-methoxybenzamide], the IC50 is reported as over 1000 nM.
Compound `CN(C)c1cccc2c(S(=O)(=O)Nc3ccc(C(=O)n4nc(C5CCNCC5)c(F)c4NCc4ccc(Cl)s4)cc3)cccc12` [Compound 57, N-[4-(5-[(5-chlorothiophen-2-yl)methyl]amino-4-fluoro-3-(piperidin-4-yl)-1H-pyrazole-1-carbonyl)phenyl]-5-(dimethylamino)naphthalene-1-sulfonamide] has an IC50 of under 100 nM.
`CN(C)c1cccc2c(S(=O)(=O)Nc3ccc(C(=O)n4nc(-c5ccccc5)c(F)c4NCc4ccc(Cl)s4)cc3)cccc12` [Compound 58, N-[4-(5-[(5-chlorothiophen-2-yl)methyl]amino-4-fluoro-3-phenyl-1H-pyrazole-1-carbonyl)phenyl]-5-(dimethylamino)naphthalene-1-sulfonamide] gave an IC50 of under 100 nM.
With `COc1ccccc1C(=O)n1nc(-c2ccccn2)c(F)c1NCc1ccccc1` [Compound 59, N-benzyl-4-fluoro-1-(2-methoxybenzoyl)-3-(pyridin-2-yl)-1H-pyrazol-5-amine] the IC50 was under 100 nM.
Work on `COc1ccccc1C(=O)n1nc(-c2ccccc2)c(F)c1NCc1ccccc1` [Compound 60, N-benzyl-4-fluoro-1-(2-methoxybenzoyl)-3-phenyl-1H-pyrazol-5-amine] yielded an IC50 of under 100 nM.
`O=C(n1nc(C2CCOCC2)c(F)c1NCc1ccc(Cl)s1)C1(CO)CC1` [Compound 61, [1-(5-[(5-chlorothiophen-2-yl)methyl]amino-4-fluoro-3-(oxan-4-yl)-1H-pyrazole-1-carbonyl)cyclopropyl]methanol] showed an IC50 of under 100 nM.
`O=C(n1nc(-c2ccccc2)c(F)c1NCc1ccc(Cl)s1)C1(CO)CC1` [Compound 62, [1-(5-[(5-chlorothiophen-2-yl)methyl]amino-4-fluoro-3-phenyl-1H-pyrazole-1-carbonyl)cyclopropyl]methanol] gave an IC50 of under 100 nM.

System: glioma
Assay: not given
Conditions: systemic use, rat glioma models; cited from earlier work
For `CC1CNc2c(cccc2S(=O)(=O)N[C@@H](CCCNC(=N)N)C(=O)N2CC[C@@H](C)C[C@@H]2C(=O)O)C1` (stereo partly drawn) [argatroban], the survival time is listed as “prolonged” and the tumor mass is listed as “reduced”.
